Experimental data published in patent US4650888A, “Pentaerythritol derivative” (Chugai Seiyaku Kabushiki Kaisha, priority 1984, dated 1987).

Tested on: Shay rats (pylorus-ligated, gastric ulcers in the forestomach)
Assay: Anti-ulcer activity on Shay rats
Format: in vivo
Conditions: male SD rats, 300 mg/kg orally, 16 hours
Protocol: Anti-ulcer activity on Shay rats:
Male SD rats (180-200 g) were deprived of food for 48 hours and had free access to water. Under ether anesthesia the abdomen of each rat was incised and the pylorus ligated. Concurrently the test complex was orally administered and the abdomen was closed. The animals were killed 16 hours later by an overdose, and the stomach of each rat removed. The stomach was incised along the greater curvature and examined for gastric ulcers developed in the forestomach. The damaged mucosa in shay ulcers was measured under a dissecting microscope (x10) with a square grid, summed, and arbitrarily classified into 5 degrees by an erosion index.

`O=S(=O)([O-])OCC(COCC(COS(=O)(=O)[O-])(COS(=O)(=O)[O-])COS(=O)(=O)[O-])(COS(=O)(=O)[O-])COS(=O)(=O)[O-].[Na+].[Na+].[Na+].[Na+].[Na+].[Na+]` [Na salt, Sodium salt of sulfuric acid ester of dipentaerythritol] was tested, and the “Erosion Index (mean ± SE)” value was 1.4 ± 0.2 and the “Percent Inhibition (%)” value (versus control (H2O)) was 58.8%.
